Measured values from patent US20200339625A1, “NOVEL RADIOMETAL-BINDING COMPOUNDS FOR DIAGNOSIS OR TREATMENT OF PROSTATE SPECIFIC MEMBRANE ANTIGEN-EXPRESSING CANCER” (PROVINCIAL HEALTH SERVICES AUTHORITY, priority 2017, published 2020).
One block for each compound: values may come before it.

Tests used:
[1] = tested on: mice bearing LNCaP tumor xenografts; test: PET/CT imaging of 68Ga-labeled compounds; format: in vivo
Method in brief: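 Male NOD SCID IL2Rγ KO mice bore subcutaneous LNCaP xenografts (1×10^7 cells, tumours 5-8 mm) and received 6-8 MBq tracer via tail vein under 2% isoflurane. At 50 min p.i., a 10-min CT and a 10-min static PET were acquired. For the 3 h time point, scanning began at 170 min p.i. with a 15-min static PET.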

[2] = tested on: mice bearing PSMA-expressing LNCAP cancer xenografts; test: Biodistribution of 68Ga-labeled compounds; format: in vivo
Method in brief: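 NOD-SCID IL2RγKO male mice carried subcutaneous LNCaP xenografts grown to 5-8 mm over 5-6 weeks. Organs and blood were collected at 1 or 3 h after injection of the radiotracer and gamma-counted. Uptake was normalized to injected dose via a standard curve and expressed as %ID/g.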

change of tumor uptake from 1 h to 3 h post-injection ([1]; PET/CT images): increases over time
excretion pathway ([1]; PET/CT images): excreted mainly by the renal pathway
blood retention (qualitative) ([1]; PET/CT images at 1 h and 3 h post-injection, comparison within the figure): significantly higher blood retention
Adrenal glands uptake ([2]; 1 h post-injection): 3.57 ± 1.09 % ID/g
Blood uptake ([2]; 1 h post-injection): 5.73 ± 0.93 % ID/g
Bone uptake ([2]; 1 h post-injection): 0.34 ± 0.08 % ID/g
Brain uptake ([2]; 1 h post-injection): 0.08 ± 0.01 % ID/g
Fat uptake ([2]; 1 h post-injection): 1.36 ± 0.28 % ID/g
Heart uptake ([2]; 1 h post-injection): 1.46 ± 0.27 % ID/g
Intestine uptake ([2]; 1 h post-injection): 0.61 ± 0.10 % ID/g
Kidneys uptake ([2]; 1 h post-injection): 85.8 ± 8.36 % ID/g
Lacrimal uptake ([2]; 1 h post-injection): 0.11 ± 0.06 % ID/g
Liver uptake ([2]; 1 h post-injection): 1.01 ± 0.29 % ID/g
Lungs uptake ([2]; 1 h post-injection): 3.67 ± 0.72 % ID/g
Muscle uptake ([2]; 1 h post-injection): 0.58 ± 0.08 % ID/g
Pancreas uptake ([2]; 1 h post-injection): 0.86 ± 0.09 % ID/g
Salivary uptake ([2]; 1 h post-injection): 2.61 ± 0.59 % ID/g
Seminal uptake ([2]; 1 h post-injection): 1.42 ± 2.17 % ID/g
Spleen uptake ([2]; 1 h post-injection): 3.90 ± 1.57 % ID/g
Stomach uptake ([2]; 1 h post-injection): 0.24 ± 0.05 % ID/g
Tail uptake ([2]; 1 h post-injection): 1.79 ± 0.36 % ID/g
Testes uptake ([2]; 1 h post-injection): 1.03 ± 0.12 % ID/g
Thyroid uptake ([2]; 1 h post-injection): 1.70 ± 0.25 % ID/g
Tumor uptake ([2]; 1 h post-injection): 18.8 ± 3.35 % ID/g
Tumor:Blood ratio ([2]; 1 h post-injection): 3.33 ± 0.75
Tumor:Muscle ratio ([2]; 1 h post-injection): 33.2 ± 7.91
Tumor:kidney ratio ([2]; 1 h post-injection): 0.22 ± 0.03
Urine uptake ([2]; 1 h post-injection): 181 ± 97.2 % ID/g
Adrenal glands uptake ([2]; 3 h post-injection): 1.37 ± 0.48 % ID/g
Blood uptake ([2]; 3 h post-injection): 2.10 ± 0.48 % ID/g
Bone uptake ([2]; 3 h post-injection): 0.13 ± 0.04 % ID/g
Brain uptake ([2]; 3 h post-injection): 0.04 ± 0.01 % ID/g
Fat uptake ([2]; 3 h post-injection): 0.70 ± 0.13 % ID/g
Heart uptake ([2]; 3 h post-injection): 0.52 ± 0.09 % ID/g
Intestine uptake ([2]; 3 h post-injection): 0.39 ± 0.08 % ID/g
Kidneys uptake ([2]; 3 h post-injection): 63.4 ± 16.6 % ID/g
Lacrimal uptake ([2]; 3 h post-injection): 0.04 ± 0.07 % ID/g
Liver uptake ([2]; 3 h post-injection): 0.61 ± 0.08 % ID/g
Lungs uptake ([2]; 3 h post-injection): 1.50 ± 0.26 % ID/g
Muscle uptake ([2]; 3 h post-injection): 0.31 ± 0.08 % ID/g
Pancreas uptake ([2]; 3 h post-injection): 0.35 ± 0.09 % ID/g
Salivary uptake ([2]; 3 h post-injection): 1.03 ± 0.33 % ID/g
Seminal uptake ([2]; 3 h post-injection): 0.21 ± 0.08 % ID/g
Spleen uptake ([2]; 3 h post-injection): 1.05 ± 0.09 % ID/g
Stomach uptake ([2]; 3 h post-injection): 0.16 ± 0.09 % ID/g
Tail uptake ([2]; 3 h post-injection): 0.60 ± 0.15 % ID/g
Testes uptake ([2]; 3 h post-injection): 0.60 ± 0.09 % ID/g
Thyroid uptake ([2]; 3 h post-injection): 0.64 ± 0.10 % ID/g
Tumor uptake ([2]; 3 h post-injection): 28.9 ± 4.27 % ID/g
Tumor:Blood ratio ([2]; 3 h post-injection): 14.2 ± 2.77
Tumor:Muscle ratio ([2]; 3 h post-injection): 95.8 ± 20.9
Tumor:kidney ratio ([2]; 3 h post-injection): 0.48 ± 0.11
Urine uptake ([2]; 3 h post-injection): 141 ± 54.3 % ID/g
Structure (SMILES): O=C([O-])CN1CCN(CC(=O)[O-])CCN(CC(=O)NCCCC[C@H](NC(=O)CNC(=O)CCCc2ccc(F)cc2)C(=O)NC[C@H]2CC[C@H](C(=O)N[C@@H](Cc3ccc4ccccc4c3)C(=O)NCCCC[C@H](NC(=O)N[C@@H](CCC(=O)O)C(=O)O)C(=O)O)CC2)CCN(CC(=O)[O-])CC1.[68Ga+3] [^68Ga-HTK03085]

excretion pathway ([1]; PET/CT images): excreted mainly via the renal pathway
tumor uptake (qualitative comparison) ([1]; PET/CT images, compounds of FIG. 13): comparable
Adrenal glands uptake ([2]; 1 h post-injection): 3.55 ± 2.33 % ID/g
Blood uptake ([2]; 1 h post-injection): 1.56 ± 0.57 % ID/g
Bone uptake ([2]; 1 h post-injection): 0.70 ± 0.33 % ID/g
Brain uptake ([2]; 1 h post-injection): 0.06 ± 0.03 % ID/g
Fat uptake ([2]; 1 h post-injection): 1.03 ± 0.67 % ID/g
Heart uptake ([2]; 1 h post-injection): 0.56 ± 0.24 % ID/g
Intestine uptake ([2]; 1 h post-injection): 0.44 ± 0.12 % ID/g
Kidneys uptake ([2]; 1 h post-injection): 85.6 ± 73.5 % ID/g
Lacrimal uptake ([2]; 1 h post-injection): 1.00 ± 0.56 % ID/g
Liver uptake ([2]; 1 h post-injection): 0.46 ± 0.10 % ID/g
Lungs uptake ([2]; 1 h post-injection): 1.66 ± 0.67 % ID/g
Muscle uptake ([2]; 1 h post-injection): 0.48 ± 0.37 % ID/g
Pancreas uptake ([2]; 1 h post-injection): 0.57 ± 0.20 % ID/g
Salivary uptake ([2]; 1 h post-injection): 1.86 ± 0.91 % ID/g
Seminal uptake ([2]; 1 h post-injection): 10.6 ± 10.9 % ID/g
Spleen uptake ([2]; 1 h post-injection): 3.36 ± 2.54 % ID/g
Stomach uptake ([2]; 1 h post-injection): 0.17 ± 0.10 % ID/g
Tail uptake ([2]; 1 h post-injection): 0.98 ± 0.38 % ID/g
Testes uptake ([2]; 1 h post-injection): 0.56 ± 0.18 % ID/g
Thyroid uptake ([2]; 1 h post-injection): 0.76 ± 0.33 % ID/g
Tumor uptake ([2]; 1 h post-injection): 13.3 ± 5.44 % ID/g
Tumor:Blood ratio ([2]; 1 h post-injection): 8.57 ± 2.83
Tumor:Muscle ratio ([2]; 1 h post-injection): 35.0 ± 18.7
Tumor:kidney ratio ([2]; 1 h post-injection): 0.27 ± 0.20
Urine uptake ([2]; 1 h post-injection): 844 ± 645 % ID/g
Structure (SMILES): O=C([O-])CN1CCN(CC(=O)[O-])CCN(CC(=O)NCC2CCC(C(=O)NC(Cc3ccc4cc5ccccc5cc4c3)C(=O)NCCCCC(NC(=O)NC(CCC(=O)O)C(=O)O)C(=O)O)CC2)CCN(CC(=O)[O-])CC1.[68Ga+3] (centres unmarked) [^68Ga-HTK03027]
